ChEMBL document CHEMBL5215002, “Selective Inhibition of PTP1B by New Anthraquinone Glycosides from Knoxia valerianoides” (J Nat Prod, 2022)
Calls of active or inactive are those of the source. No cut-off for these calls is given here.

How the values were obtained:
[1] = target: T1, Tyrosine-protein phosphatase non-receptor type 1 (Homo sapiens, UniProt P18031); experiment: Inhibition of N-terminal His-tagged recombinant human PTP1B expressed in Escherichia coli
T1 sequence (P18031 whole entry): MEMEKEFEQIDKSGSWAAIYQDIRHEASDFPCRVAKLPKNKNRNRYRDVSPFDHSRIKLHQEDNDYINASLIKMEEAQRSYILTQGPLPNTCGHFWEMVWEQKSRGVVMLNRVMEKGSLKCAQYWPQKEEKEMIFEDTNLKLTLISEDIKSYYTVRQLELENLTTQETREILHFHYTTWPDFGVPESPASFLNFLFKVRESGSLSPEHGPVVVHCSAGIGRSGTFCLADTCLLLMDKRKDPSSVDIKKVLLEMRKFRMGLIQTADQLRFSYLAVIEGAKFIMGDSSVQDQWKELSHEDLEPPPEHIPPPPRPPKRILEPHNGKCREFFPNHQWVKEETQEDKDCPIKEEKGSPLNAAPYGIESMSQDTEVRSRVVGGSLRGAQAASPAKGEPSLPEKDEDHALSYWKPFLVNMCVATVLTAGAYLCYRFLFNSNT

Homo sapiens = organism: Homo sapiens; experiment: Selectivity index, ratio of IC50 for inhibition of recombinant human TCPTP (1 to 314 residues) expressed in baculovirus infected insect cells to IC50 for inhibition of N-terminal His-tagged recombinant human PTP1B expressed in Escherichia coli
[2] = target: T2, Tyrosine-protein phosphatase non-receptor type 2 (Homo sapiens, UniProt P17706); experiment: Inhibition of recombinant human TCPTP (1 to 314 residues) expressed in baculovirus-insect cells
T2 sequence (P17706 whole entry): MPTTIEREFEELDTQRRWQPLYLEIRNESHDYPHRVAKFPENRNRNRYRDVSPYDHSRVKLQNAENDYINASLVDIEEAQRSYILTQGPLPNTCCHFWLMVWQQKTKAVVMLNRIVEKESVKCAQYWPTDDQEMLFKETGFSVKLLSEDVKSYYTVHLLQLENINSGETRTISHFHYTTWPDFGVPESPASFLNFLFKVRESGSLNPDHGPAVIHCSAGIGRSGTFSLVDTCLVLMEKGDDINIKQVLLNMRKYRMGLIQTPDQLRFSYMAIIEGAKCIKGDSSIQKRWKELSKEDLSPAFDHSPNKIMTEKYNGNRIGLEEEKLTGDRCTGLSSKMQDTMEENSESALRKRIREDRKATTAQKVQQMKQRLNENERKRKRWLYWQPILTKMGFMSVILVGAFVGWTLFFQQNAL

[3] = target: T3, Tyrosine-protein phosphatase non-receptor type 2 (Homo sapiens) (UniProt P17706); experiment: Inhibition of recombinant human TCPTP (1 to 314 residues) expressed in baculovirus-insect cells at 100 uM relative to control
T3 sequence (whole entry): T2 sequence (P17706 whole entry)

[4] = target: T1, Tyrosine-protein phosphatase non-receptor type 1; experiment: Mixed type inhibition of N-terminal His-tagged recombinant human PTP1B expressed in Escherichia coli using pNPP as substrate assessed as inhibition constant preincubated for 15 mins followed by substrate addition and measured after 15 mins by Dixon plot analysis
[5] = target: T4, Tyrosine-protein phosphatase non-receptor type 1 (Homo sapiens) (UniProt P18031); experiment: Mixed type inhibition of N-terminal His-tagged recombinant human PTP1B expressed in Escherichia coli assessed as reduction in Vmax with increase in Km using varying concentrations of pNPP as substrate preincubated for 15 mins followed by substrate addition and measured after 15 mins by Lineweaver-Burk plot analysis; conditions: time 30.0 min
T4 sequence (whole entry): T1 sequence (P18031 whole entry)

Compound	IC50 [1] [µM]	Ratio IC50 (Homo sapiens)	IC50 [2] [µM]	inhibition [3] [%]	Ki [4] [µM]	inhibition [5]
COc1ccc2c(c1)C(=O)c1cc(O[C@@H]3O[C@H](CO[C@@H]4OC[C@@H](O)[C@H](O)[C@H]4O)[C@@H](O)[C@H](O)[C@H]3O)c(C)c(O)c1C2=O	9.04					
SODIUM ORTHOVANAD		0.67				
COc1ccc2c(c1O)C(=O)c1cc(O[C@@H]3O[C@H](CO[C@@H]4OC[C@@H](O)[C@H](O)[C@H]4O)[C@@H](O)[C@H](O)[C@H]3O)c(CO)c(O)c1C2=O	3.52					
COc1ccc2c(c1O)C(=O)c1cc(O[C@@H]3O[C@H](CO)[C@@H](O)[C@H](O)[C@H]3O)c(CO)c(O)c1C2=O	3.05					
Cc1c(O[C@@H]2O[C@H](CO[C@@H]3OC[C@@H](O)[C@H](O)[C@H]3O)[C@@H](O)[C@H](O)[C@H]2O)cc2c(c1O)C(=O)c1ccccc1C2=O	13.7					
O=C1c2ccccc2C(=O)c2c1cc(O)c(CO[C@@H]1O[C@H](CO)[C@@H](O)[C@H](O)[C@H]1O)c2O	3.86	25.9	> 100	< 20	3.02	Active
COc1ccc2c(c1)C(=O)c1cc(O[C@@H]3O[C@H](CO[C@@H]4OC[C@@H](O)[C@H](O)[C@H]4O)[C@@H](O)[C@H](O)[C@H]3O)c(CO)c(O)c1C2=O	11.3	8.9	> 100	< 20		
COc1ccc2c(c1)C(=O)c1cc(O[C@@H]3O[C@H](CO)[C@@H](O)[C@H](O)[C@H]3O)c(CO)c(O)c1C2=O	1.56	64.1	> 100	< 20		
COc1ccc2c(c1)C(=O)c1cc(O)c(CO[C@@H]3O[C@H](CO[C@@H]4OC[C@@H](O)[C@H](O)[C@H]4O)[C@@H](O)[C@H](O)[C@H]3O)c(O)c1C2=O	7.52					
COc1ccc2c(c1O)C(=O)c1cc(O[C@@H]3O[C@H](CO[C@@H]4OC[C@@H](O)[C@H](O)[C@H]4O)[C@@H](O)[C@H](O)[C@H]3O)c(C)c(O)c1C2=O	7.28	13.7	> 100	40		
O=C1c2ccccc2C(=O)c2c1cc(O[C@@H]1O[C@H](CO)[C@@H](O)[C@H](O)[C@H]1O)c(CO)c2O	10.8					
Cc1c(O[C@@H]2O[C@H](CO[C@@H]3OC[C@@H](O)[C@H](O)[C@H]3O)[C@@H](O)[C@H](O)[C@H]2O)cc2c(c1O)C(=O)c1ccc(O)c(O)c1C2=O	1.05	74.3	78		1.21	Active
